Key:
[1] = cardiovascular safety pharmacology study in dogs; format: in vivo
SV2B = conditions: relative to SV2A
From the text: (§1) ([Löscher et al., 2016]). […] ([Lynch et al., 2004]; [Matagne et al., 2008]).

SV2C = conditions: relative to SV2A
From the text: as §1

[2] = biological target: human recombinant SV2A (hSV2A) (Homo sapiens, UniProt Q7L0J3); test: in vitro radioligand binding study using human recombinant SV2A; conditions: read-out: half maximal inhibitory concentration (IC50)
From the text: as §1

[3] = first-in-human single oral dose safety and tolerability (adverse events)
Protocol: The study consisted of three parts. Part A was a double-blind, placebo-controlled (in a 6:2 SDI-118:placebo ratio), single ascending oral dose study performed in 16 subjects equally divided into two cohorts. […] Dose levels of .3, 1, 3, 10, 30, 60, 90 and 120 mg of SDI-118 were set to be administered in an alternating panel design with a minimum washout period of 7 days between subsequent periods. In each period two different sentinel subjects were dosed (in a 1:1 SDI-118:placebo ratio) and followed-up for safety for at least 48 h before the rest of the cohort received the same dose level of the study drug.
Safety and tolerability were assessed by questioning for adverse events (AEs), vital signs measurements (supine and orthostatic), 12-lead ECGs (always acquired in triplicate except during screening and post-study visit), standard lab safety tests on blood and urine samples, and physical and neurological examinations at regular time-points throughout the study.

[4] = system: animal models of cognitive deficit; test: animal models of cognitive deficit; format: in vivo; conditions: rodents
From the text: as §1

[5] = all subjects (n = 32), all single doses pooled
[6] = all subjects (n = 32), only at 80 mg

human recombinant SV2A (hSV2A), sequence (Q7L0J3 whole entry): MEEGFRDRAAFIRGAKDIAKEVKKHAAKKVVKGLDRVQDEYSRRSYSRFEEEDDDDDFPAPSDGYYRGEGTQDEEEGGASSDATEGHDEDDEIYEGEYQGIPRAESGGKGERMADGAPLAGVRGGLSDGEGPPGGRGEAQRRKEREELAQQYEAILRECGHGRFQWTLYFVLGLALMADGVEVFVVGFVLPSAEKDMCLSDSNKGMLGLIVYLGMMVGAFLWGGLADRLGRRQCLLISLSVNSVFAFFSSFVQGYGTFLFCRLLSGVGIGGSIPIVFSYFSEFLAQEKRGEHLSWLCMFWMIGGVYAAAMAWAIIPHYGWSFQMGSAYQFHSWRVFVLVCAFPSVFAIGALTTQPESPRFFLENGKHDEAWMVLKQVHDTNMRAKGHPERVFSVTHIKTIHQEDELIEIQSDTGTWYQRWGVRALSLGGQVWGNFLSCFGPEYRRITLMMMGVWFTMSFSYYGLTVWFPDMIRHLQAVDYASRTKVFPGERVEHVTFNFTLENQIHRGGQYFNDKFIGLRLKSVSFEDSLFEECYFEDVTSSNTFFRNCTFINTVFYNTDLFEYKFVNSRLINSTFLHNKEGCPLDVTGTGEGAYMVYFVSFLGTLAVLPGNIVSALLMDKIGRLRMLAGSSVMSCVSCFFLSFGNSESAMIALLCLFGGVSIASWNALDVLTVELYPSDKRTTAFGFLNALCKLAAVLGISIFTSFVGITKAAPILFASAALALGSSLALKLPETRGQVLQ

Question: Which results are given for `O=C1C[C@H](c2cc(F)c(F)c(F)c2)CN1Cn1ncnc1Cl` [SDI-118]?
Answer: findings in cardiovascular safety pharmacology study [1]: absence of any adverse findings; selectivity over SV2B (SV2B): over 1000 fold; selectivity over SV2C (SV2C): over 100 fold; IC50 [2]: 13 nM; dizziness, drug related TEAE, number of events [3, 5]: 12 events; dizziness, drug related TEAE, number of subjects [3, 5]: nine; hypersomnia, drug related TEAE, number of events [3, 5]: 6 events; hypersomnia, drug related TEAE, number of subjects [3, 5]: five; somnolence, drug related TEAE, number of events [3, 6]: 2 events; somnolence, drug related TEAE, number of subjects [3, 6]: two; All drug related TEAEs: N (%) (number of subjects) ([3]; single oral dose 1 mg (N=8)): 1 (12.5) N (%); All drug related TEAEs: No. (number of observations) ([3]; single oral dose 1 mg (N=8)): 1; Headache, drug related TEAE: N (%) (number of subjects) ([3]; single oral dose 1 mg (N=8)): 1 (12.5) N (%); Headache, drug related TEAE: No. (number of observations) ([3]; single oral dose 1 mg (N=8)): 1; Nervous System Disorders, drug related TEAEs: N (%) (number of subjects) ([3]; single oral dose 1 mg (N=8)): 1 (12.5) N (%); Nervous System Disorders, drug related TEAEs: No. (number of observations) ([3]; single oral dose 1 mg (N=8)): 1; All drug related TEAEs: N (%) (number of subjects) ([3]; single oral dose 3 mg (N=6)): 1 (16.7) N (%); All drug related TEAEs: No. (number of observations) ([3]; single oral dose 3 mg (N=6)): 1; Cardiac Disorders, drug related TEAEs: N (%) (number of subjects) ([3]; single oral dose 3 mg (N=6)): 1 (16.7) N (%); Cardiac Disorders, drug related TEAEs: No. (number of observations) ([3]; single oral dose 3 mg (N=6)): 1; Postural Dizziness, drug related TEAE: N (%) (number of subjects) ([3]; single oral dose 3 mg (N=6)): 1 (16.7) N (%); Postural Dizziness, drug related TEAE: No. (number of observations) ([3]; single oral dose 3 mg (N=6)): 1; All drug related TEAEs: N (%) (number of subjects) ([3]; single oral dose 10 mg (N=16)): 4 (66.7) N (%); All drug related TEAEs: No. (number of observations) ([3]; single oral dose 10 mg (N=16)): 5; Blurred vision, drug related TEAE: N (%) (number of subjects) ([3]; single oral dose 10 mg (N=16)): 1 (16.7) N (%); Blurred vision, drug related TEAE: No. (number of observations) ([3]; single oral dose 10 mg (N=16)): 1; Dizziness, drug related TEAE: N (%) (number of subjects) ([3]; single oral dose 10 mg (N=16)): 1 (16.7) N (%); Dizziness, drug related TEAE: No. (number of observations) ([3]; single oral dose 10 mg (N=16)): 1; Eye Disorders, drug related TEAEs: N (%) (number of subjects) ([3]; single oral dose 10 mg (N=16)): 1 (16.7) N (%); Eye Disorders, drug related TEAEs: No. (number of observations) ([3]; single oral dose 10 mg (N=16)): 1; Fatigue, drug related TEAE: N (%) (number of subjects) ([3]; single oral dose 10 mg (N=16)): 1 (16.7) N (%); Fatigue, drug related TEAE: No. (number of observations) ([3]; single oral dose 10 mg (N=16)): 1; General Disorders, drug related TEAEs: N (%) (number of subjects) ([3]; single oral dose 10 mg (N=16)): 1 (16.7) N (%); General Disorders, drug related TEAEs: No. (number of observations) ([3]; single oral dose 10 mg (N=16)): 1; Hypersomnia, drug related TEAE: N (%) (number of subjects) ([3]; single oral dose 10 mg (N=16)): 2 (33.3) N (%); Hypersomnia, drug related TEAE: No. (number of observations) ([3]; single oral dose 10 mg (N=16)): 2; Nervous System Disorders, drug related TEAEs: N (%) (number of subjects) ([3]; single oral dose 10 mg (N=16)): 3 (50.0) N (%); Nervous System Disorders, drug related TEAEs: No. (number of observations) ([3]; single oral dose 10 mg (N=16)): 3; All drug related TEAEs: N (%) (number of subjects) ([3]; single oral dose 20 mg (N=8)): 4 (50.0) N (%); All drug related TEAEs: No. (number of observations) ([3]; single oral dose 20 mg (N=8)): 4; Dizziness, drug related TEAE: N (%) (number of subjects) ([3]; single oral dose 20 mg (N=8)): 4 (50.0) N (%); Dizziness, drug related TEAE: No. (number of observations) ([3]; single oral dose 20 mg (N=8)): 4; Nervous System Disorders, drug related TEAEs: N (%) (number of subjects) ([3]; single oral dose 20 mg (N=8)): 4 (50.0) N (%); Nervous System Disorders, drug related TEAEs: No. (number of observations) ([3]; single oral dose 20 mg (N=8)): 4; All drug related TEAEs: N (%) (number of subjects) ([3]; single oral dose 40 mg (N=6)): 3 (50.0) N (%); All drug related TEAEs: No. (number of observations) ([3]; single oral dose 40 mg (N=6)): 4; Dizziness, drug related TEAE: N (%) (number of subjects) ([3]; single oral dose 40 mg (N=6)): 3 (50.0) N (%); Dizziness, drug related TEAE: No. (number of observations) ([3]; single oral dose 40 mg (N=6)): 3; Hypersomnia, drug related TEAE: N (%) (number of subjects) ([3]; single oral dose 40 mg (N=6)): 1 (16.7) N (%); Hypersomnia, drug related TEAE: No. (number of observations) ([3]; single oral dose 40 mg (N=6)): 1; Nervous System Disorders, drug related TEAEs: N (%) (number of subjects) ([3]; single oral dose 40 mg (N=6)): 3 (50.0) N (%); Nervous System Disorders, drug related TEAEs: No. (number of observations) ([3]; single oral dose 40 mg (N=6)): 4; All drug related TEAEs: N (%) (number of subjects) ([3]; single oral dose 60 mg (N=6)): 3 (50.0) N (%); All drug related TEAEs: No. (number of observations) ([3]; single oral dose 60 mg (N=6)): 4; Cardiac Disorders, drug related TEAEs: N (%) (number of subjects) ([3]; single oral dose 60 mg (N=6)): 1 (16.7) N (%); Cardiac Disorders, drug related TEAEs: No. (number of observations) ([3]; single oral dose 60 mg (N=6)): 1; Dizziness, drug related TEAE: N (%) (number of subjects) ([3]; single oral dose 60 mg (N=6)): 2 (33.3) N (%); Dizziness, drug related TEAE: No. (number of observations) ([3]; single oral dose 60 mg (N=6)): 2; Hypersomnia, drug related TEAE: N (%) (number of subjects) ([3]; single oral dose 60 mg (N=6)): 1 (16.7) N (%); Hypersomnia, drug related TEAE: No. (number of observations) ([3]; single oral dose 60 mg (N=6)): 1; Nervous System Disorders, drug related TEAEs: N (%) (number of subjects) ([3]; single oral dose 60 mg (N=6)): 2 (33.3) N (%); Nervous System Disorders, drug related TEAEs: No. (number of observations) ([3]; single oral dose 60 mg (N=6)): 3; Postural Dizziness, drug related TEAE: N (%) (number of subjects) ([3]; single oral dose 60 mg (N=6)): 1 (16.7) N (%); Postural Dizziness, drug related TEAE: No. (number of observations) ([3]; single oral dose 60 mg (N=6)): 1; All drug related TEAEs: N (%) (number of subjects) ([3]; single oral dose 80 mg (N=6)): 4 (66.7) N (%); All drug related TEAEs: No. (number of observations) ([3]; single oral dose 80 mg (N=6)): 8; Dizziness, drug related TEAE: N (%) (number of subjects) ([3]; single oral dose 80 mg (N=6)): 2 (33.3) N (%); Dizziness, drug related TEAE: No. (number of observations) ([3]; single oral dose 80 mg (N=6)): 2; Headache, drug related TEAE: N (%) (number of subjects) ([3]; single oral dose 80 mg (N=6)): 1 (16.7) N (%); Headache, drug related TEAE: No. (number of observations) ([3]; single oral dose 80 mg (N=6)): 1; Hypersomnia, drug related TEAE: N (%) (number of subjects) ([3]; single oral dose 80 mg (N=6)): 2 (33.3) N (%); Hypersomnia, drug related TEAE: No. (number of observations) ([3]; single oral dose 80 mg (N=6)): 2; Irritability, drug related TEAE: N (%) (number of subjects) ([3]; single oral dose 80 mg (N=6)): 1 (16.7) N (%); Irritability, drug related TEAE: No. (number of observations) ([3]; single oral dose 80 mg (N=6)): 1; Nervous System Disorders, drug related TEAEs: N (%) (number of subjects) ([3]; single oral dose 80 mg (N=6)): 4 (66.7) N (%); Nervous System Disorders, drug related TEAEs: No. (number of observations) ([3]; single oral dose 80 mg (N=6)): 7; Psychiatric Disorders, drug related TEAEs: N (%) (number of subjects) ([3]; single oral dose 80 mg (N=6)): 1 (16.7) N (%); Psychiatric Disorders, drug related TEAEs: No. (number of observations) ([3]; single oral dose 80 mg (N=6)): 1; Somnolence, drug related TEAE: N (%) (number of subjects) ([3]; single oral dose 80 mg (N=6)): 2 (33.3) N (%); Somnolence, drug related TEAE: No. (number of observations) ([3]; single oral dose 80 mg (N=6)): 2; intensity of drug related TEAEs ([3]; single oral doses 0.3-80 mg): mild in intensity; neurological examination ([3]; single oral doses 0.3-80 mg): No abnormalities were found; serious adverse events (SAEs) ([3]; single oral doses 0.3-80 mg): no serious adverse events; safety and tolerability of single oral dose ([3]; up to 80 mg, healthy male subjects): safe and well tolerated; cognitive effects in animal models of cognitive deficit [4]: showed cognitive enhancing effects

Reference: PMC9887116, “SDI-118, a novel procognitive SV2A modulator: First-in-human randomized controlled trial including PET/fMRI assessment of target engagement” (Frontiers in Pharmacology, 2023)
